Key:
A549 [1] = test: Antiproliferative activity against human A549 cells after 120 hrs by WST-8 assay; type: functional, cell-based; conditions: A549, 120 h
[2] = Antiproliferative activity against human PANC1 cells after 96 hrs by WST-8 assay; type: functional, cell-based; conditions: PANC-1, 96 h
A549 [3] = test: Ratio of (+)-Neopeltolide IC50 to compound IC50 for human A549 cells after 120 hrs by WST-8 assay; type: functional

Row | Compound | IC50 (A549 [1]) | IC50 [2] | Ratio IC50 (A549 [3])
1 | CCC[C@H]1C[C@@H](OC)C/C(C)=C\[C@@H]2C[C@@H](OC(=O)/C(C)=C\CCc3coc(/C=C\CNC(=O)OC)n3)C[C@H](CC(=O)O1)O2 | 2.5 nM | 2.6 nM | –
2 | CCC[C@H]1C[C@@H](OC)C/C(C)=C\[C@@H]2C[C@@H](OC(=O)/C=C\CCc3coc(CCCNC(=O)OC)n3)C[C@H](CC(=O)O1)O2 | 400 nM | 200 nM | –
3 | CCC[C@H]1C[C@@H](OC)C/C(C)=C\[C@@H]2C[C@@H](OC(=O)/C=C\CCc3coc(C=C(C)C)n3)C[C@H](CC(=O)O1)O2 | 3900 nM | 2800 nM | –
4 | CCC[C@H]1C[C@@H](OC)C/C(C)=C\[C@@H]2C[C@@H](OC(=O)CCCCc3coc(CCCNC(=O)OC)n3)C[C@H](CC(=O)O1)O2 | > 10000 nM | 3200 nM | –
5 | C/C=C\c1nc(CC/C=C\C(=O)O[C@H]2C[C@@H]3CC(=O)O[C@@H](CCC)C[C@@H](OC)C/C(C)=C\[C@H](C2)O3)co1 | 740 nM | 440 nM | –
6 | CCC[C@H]1C[C@@H](OC)C/C(C)=C\[C@@H]2C[C@@H](OC(=O)/C=C(/C)CCc3coc(/C=C\CNC(=O)OC)n3)C[C@H](CC(=O)O1)O2 | 6.3 nM | 6.4 nM | –

Further lines, with some results ahead:

Row | IC50 (A549 [1]) | Compound | IC50 [2] | Ratio IC50 (A549 [3])
7 | 500 nM | CCC[C@H]1C[C@@H](OC)C/C(C)=C\[C@@H]2C[C@@H](OC(=O)c3ccccc3CCc3coc(/C=C\CNC(=O)OC)n3)C[C@H](CC(=O)O1)O2 | 75 nM | –
8 | 0.5 nM | CCC[C@H]1C[C@@H](OC)C/C(C)=C\[C@@H]2C[C@@H](OC(=O)/C=C\CCc3coc(/C=C\CNC(=O)OC)n3)C[C@H](CC(=O)O1)O2 | 2.4 nM | 3
9 | 110 nM | CCC[C@H]1C[C@@H](OC)C/C(C)=C\[C@@H]2C[C@@H](OC(=O)CCCCc3coc(/C=C\CNC(=O)OC)n3)C[C@H](CC(=O)O1)O2 | 26 nM | –

From ChEMBL document CHEMBL3259583, “Synthesis and biological evaluation of (+)-neopeltolide analogues: importance of the oxazole-containing side chain” (Bioorg Med Chem Lett, 2014)
